From patent US20040234501A1, “Hepatitis b virus proliferation inhibitor” (priority 2001, published 2004) come the findings set out here.

The test system of one test is hepatitis B virus. As to the kind of experiment: Amount of hepatitis B virus in the blood (HBV-DNA) and emergence of resistant virus in a patient with chronic hepatitis B. Conditions: after termination of IFN-α; 3,000,000 units for a total of 28 days. In kind it is in vivo, human. As for the experimental part: (§1) Confirmation of the effect of IFN administration to a patient with chronic hepatitis B:
(§2) Therefore, 3,000,000 units of IFN-α were administered for a total of 28 days.

Test [1] is described as follows: Liver function (GPT) in a patient with chronic hepatitis B. In kind it is in vivo, human. As for the experimental part: as §1, §2

For interferon-α [IFN-α], the “amount of hepatitis B virus in the blood” value with hepatitis B virus is given as “again increased”. Also, the liver function result is recorded as “further worsened” in test [1] (3,000,000 units of IFN-α in combination with lamivudine, resistant virus present) and “worsened” in test [1] (after termination of IFN-α, 3,000,000 units for a total of 28 days).

Consider `Nc1ccn([C@@H]2CS[C@H](CO)O2)c(=O)n1` [lamivudine, reference compound], for which the “GPT (liver function acutely worsened)” value in test [1] (about 3 months after discontinuation of second lamivudine administration) worked out at 567.
